We go through 22 compounds from patent publication US11713307B2, “Heteroaryl-biphenyl amides for the treatment of PD-L1 diseases” (CHEMOCENTRYX, INC., priority 2019, dated 2023).

human PD-L1, sequence (Q9NZQ7 19-239): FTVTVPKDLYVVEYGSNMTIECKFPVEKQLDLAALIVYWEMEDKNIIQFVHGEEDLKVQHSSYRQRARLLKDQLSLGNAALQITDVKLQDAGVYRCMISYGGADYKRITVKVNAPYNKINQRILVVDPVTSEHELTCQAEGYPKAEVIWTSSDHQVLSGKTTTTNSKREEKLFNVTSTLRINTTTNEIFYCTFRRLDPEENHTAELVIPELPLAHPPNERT

The assay addresses human PD-L1 (Homo sapiens (Human), UniProt Q9NZQ7). Kind of assay: Enzyme-Linked Immunosorbent Assay—ELISA (PD-1/PD-L1 binding). The settings on record: plates coated with human PD-L1; Human PD-1 and biotin added; absorbance at 450 nm. The method, then:
96 Well plates were coated with 1 μg/mL of human PD-L1 (obtained from R&D) in PBS overnight at 4° C. The wells were then blocked with 2% BSA in PBS (W/V) with 0.05% TWEEN-20 for 1 hour at 37° C. The plates were washed 3 times with PBS/0.05% TWEEN-20 and the compounds were serial diluted (1:5) in dilution medium and added to the ELISA plates. Human PD-1 and biotin 0.3 μg/mL (ACRO Biosystems) were added and incubated for 1 hour at 37° C. then washed 3 times with PBS/0.05% TWEEN-20. A second block was performed with 2% BSA in PBS (W/V)/0.05% TWEEN-20 for 10 min at 37° C. and the plates were washed 3 times with PBS/0.05% TWEEN-20. Streptavidin-HRP was added for 1 hour at 37° C. then the plates were washed 3 times with PBS/0.05% TWEEN-20. TMB substrate was added and reacted for 20 min at 37° C. A stop solution (2 N aqueous H2SO4) was added. The absorbance was read at 450 nm using a micro-plate spectrophotometer. The results are shown in Table 1: IC50 values are provided as follows: from 1000 to 10,000 nM (+); from 10 up to 1000 nM (++); less than 10 nM (+++).
As a reminder, the IC50 is the concentration that gives 50% inhibition. Lower therefore signals higher potency. `COc1nc(-c2cccc(-c3cccc(NC(=O)c4cn(C)c(=O)n(C)c4=O)c3Cl)c2Cl)ccc1CN[C@@H]1CCOC[C@@H]1O` [Compound 1.087] yielded an IC50 of less than 0.01 µM.

Compound `COc1nc(-c2cccc(-c3cccc(NC(=O)c4cn(C)c(=O)n(C)c4=O)c3C)c2Cl)ccc1CN1CC(C(=O)O)C1` [Compound 1.082] came in with an IC50 of less than 0.01 µM.

Take `COc1cc(-c2cccc(-c3cccc(NC(=O)c4cn(C)c(=O)n(C)c4=O)c3C)c2Cl)cnc1CN[C@@H]1CCOC[C@@H]1O` [Compound 1.009]: the IC50 is less than 0.01 µM.

`COc1cc(-c2cccc(-c3cccc(NC(=O)c4cn(C)c(=O)n(C)c4=O)c3Cl)c2Cl)ncc1CN1CC(C)(C(=O)O)C1` [Compound 1.083]: the IC50 was less than 0.01 µM.

The compound `COc1nc(-c2cccc(-c3cccc(NC(=O)c4cn(C)c(=O)n(C)c4=O)c3Cl)c2F)ccc1CNC[C@@H]1CCC(=O)N1` [Compound 1.063] came in with an IC50 of less than 0.01 µM.

Turning to `COc1nc(-c2cccc(-c3cccc(NC(=O)c4cn(C)c(=O)n(C)c4=O)c3Cl)c2Cl)ccc1CNC[C@H]1CCC(=O)N1` [Compound 1.066], the IC50 is less than 0.01 µM.

Compound `COc1nc(-c2cccc(-c3cccc(NC(=O)c4cn(C)c(=O)n(C)c4=O)c3Cl)c2Cl)ccc1CN1CC[C@@](C)(O)C1` [Compound 1.027] showed an IC50 of less than 0.01 µM.

`COc1nc(-c2cccc(-c3cccc(NC(=O)c4cn(C)c(=O)n(C)c4=O)c3Cl)c2Cl)cnc1CN[C@H]1CCOC[C@H]1O` [Compound 1.004] came in with an IC50 of less than 0.01 µM.

As for `COc1nc(-c2cccc(-c3cccc(NC(=O)c4cn(C)c(=O)n(C)c4=O)c3Cl)c2C)ccc1CNC[C@@H]1CCC(=O)N1` [Compound 1.068], the IC50 was less than 0.01 µM.

On to `COc1nc(-c2cccc(-c3cccc(NC(=O)c4c[nH]c(=O)n(C)c4=O)c3C)c2Cl)ccc1CNC[C@@H]1CCC(=O)N1` [Compound 1.065], for which the IC50 is less than 0.01 µM.

`COc1nc(-c2cccc(-c3cccc(NC(=O)c4cn(C)c(=O)n(C)c4=O)c3C)c2Cl)ccc1CN[C@@H]1CCC[C@@H]1O` [Compound 1.011] returned an IC50 of less than 0.01 µM.

Compound `COc1nc(-c2cccc(-c3cccc(NC(=O)c4cn(C)c(=O)n(C)c4=O)c3C)c2Cl)ccc1CN1CC(C(C)(C)O)C1` [Compound 1.041] had an IC50 of less than 0.01 µM.

Take `COc1nc(-c2cccc(-c3cccc(NC(=O)c4cn(C)c(=O)n(C)c4=O)c3C)c2Cl)ccc1CNC[C@H](C)O` [Compound 1.029]: the IC50 was less than 0.01 µM.

For `COc1nc(-c2cccc(-c3cccc(NC(=O)c4cn(C)c(=O)n(C)c4=O)c3Cl)c2Cl)ccc1CNC[C@@H](C)O` [Compound 1.032], the IC50 was less than 0.01 µM.

For the compound `COc1nc(-c2cccc(-c3cccc(NC(=O)c4cn(C)c(=O)n(C)c4=O)c3Cl)c2Cl)cnc1CN1CC(C)(C(=O)O)C1` [Compound 1.099], the IC50 is less than 0.01 µM.

As for `COc1nc(-c2cccc(-c3cccc(NC(=O)c4cn(C)c(=O)n(C)c4=O)c3C)c2Cl)ccc1CN1CC(C)(O)C1` [Compound 1.038], the IC50 was less than 0.01 µM.

On to `CNCc1ccc(-c2cccc(-c3cccc(NC(=O)c4cn(C)c(=O)n(C)c4=O)c3C)c2Cl)nc1OC` [Compound 1.031], for which the IC50 was less than 0.01 µM.

For the compound `COc1nc(-c2cccc(-c3cccc(NC(=O)c4cn(C)c(=O)n(C)c4=O)c3Cl)c2)ccc1CNC[C@@H]1CCC(=O)N1` [Compound 1.067], the IC50 was less than 0.01 µM.

In turn, `CCc1nc(-c2cccc(-c3cccc(NC(=O)c4cn(C)c(=O)n(C)c4=O)c3Cl)c2Cl)ccc1CN[C@@H]1CCOC[C@@H]1O` [Compound 1.075] registered an IC50 of less than 0.01 µM.

Turning to `COc1nc(-c2cccc(-c3cccc(NC(=O)c4cn(C)c(=O)n(C)c4=O)c3C)c2Cl)ccc1CN[C@@H]1CNC(=O)C1` [Compound 1.007], the IC50 is less than 0.01 µM.

Take `COc1nc(-c2cccc(-c3cccc(NC(=O)c4cn(C)c(=O)n(C)c4=O)c3Cl)c2Cl)ccc1CN1CC[C@@H](C(=O)O)C1` [Compound 1.074]: the IC50 is less than 0.01 µM.

In turn, `Cn1cc(C(=O)Nc2cccc(-c3cccc(-c4ccc(CNC[C@@H]5CCC(=O)N5)c(O)n4)c3Cl)c2Cl)c(=O)n(C)c1=O` [Compound 1.033] registered an IC50 of 0.01 to 1 µM.
